Several values for one entry are separate records, joined by “and”; a condition that tells them apart may be missing. Equal entries are not always repeated. Results filed as inconclusive are left out.
System: MX-1 breast xenograft, nude mice, tumor weight T/C
Assay: NCI In Vivo Anticancer Drug Screen. Data for tumor model Human Mammary Carcinoma MX-1 Xenograft (intrarenal inoculation) in NU/NU Swiss (nude) mice
Settings: endpoint: mean tumor weight change, higher = larger tumour
Method in brief: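 Compound dosed to mice with transplantable tumor; vehicle group as control. Endpoint survival or tumour size, reported as T/C.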

[1] = dose: 600.0 mg/kg/injection, schedule: Q04DX003 (sc), vehicle: saline with Tween-80
[2] = dose: 2400.0 mg/kg/injection, schedule: Q04DX003 (sc), vehicle: saline with Tween-80
[3] = dose: 300.0 mg/kg/injection, schedule: Q04DX003 (sc), vehicle: saline with Tween-80
[4] = dose: 1200.0 mg/kg/injection, schedule: Q04DX003 (sc), vehicle: saline with Tween-80
[5] = dose: 150.0 mg/kg/injection, schedule: Q04DX003 (sc), vehicle: Klucel (hydroxypropylcellulose) (HPC)
[6] = dose: 300.0 mg/kg/injection, schedule: Q04DX003 (sc), vehicle: Klucel (hydroxypropylcellulose) (HPC)
[7] = dose: 100.0 mg/kg/injection, schedule: Q04DX003 (sc), vehicle: Klucel (hydroxypropylcellulose) (HPC)
[8] = dose: 400.0 mg/kg/injection, schedule: Q04DX003 (sc), vehicle: Klucel (hydroxypropylcellulose) (HPC)
[9] = dose: 8.0 mg/kg/injection, schedule: Q04DX003 (sc), vehicle: saline with Tween-80
[10] = dose: 16.0 mg/kg/injection, schedule: Q04DX003 (sc), vehicle: saline with Tween-80
[11] = dose: 300.0 mg/kg/injection, schedule: Q04DX003 (sc), vehicle: saline
[12] = dose: 600.0 mg/kg/injection, schedule: Q04DX003 (sc), vehicle: saline
[13] = dose: 1200.0 mg/kg/injection, schedule: Q04DX003 (sc), vehicle: saline
[14] = dose: 200.0 mg/kg/injection, schedule: Q04DX003 (sc), vehicle: saline with Tween-80

For `N=c1c(C(=O)OCc2ccccc2)ncc(CCl)n1O`, the T/C [1] was 89 % of control and the T/C [2] was 72 % of control.
For `COc1cccc(C2NC(=O)c3c(n[nH]c3N)S2)c1O` (stereo unspecified), the T/C (dose: 150.0 mg/kg/injection, schedule: Q04DX003 (sc), vehicle: saline with Tween-80) was 50 % of control, the T/C [3] was 62 % of control and the T/C [1] was 77 % of control. For the same compound, the T/C [4] was 117 % of control.
For `O=C1NC(=O)/C(=C/C=C/c2ccccc2)S1`, the T/C [3] was 111 % of control, the T/C [1] was 98 % of control and the T/C [4] was 84 % of control. For the same compound, the T/C [2] was 66 % of control.
`Cc1cc(NCCN(C(C)C)C(C)C)nc(/N=C(\N)Nc2ccc(Cl)c(C(F)(F)F)c2)n1` was tested, and the T/C (dose: 80.0 mg/kg/injection, schedule: Q04DX003 (sc), vehicle: Klucel (hydroxypropylcellulose) (HPC)) was 64 % of control, the T/C (dose: 160.0 mg/kg/injection, schedule: Q04DX003 (sc), vehicle: Klucel (hydroxypropylcellulose) (HPC)) was 62 % of control and the T/C (dose: 320.0 mg/kg/injection, schedule: Q04DX003 (sc), vehicle: Klucel (hydroxypropylcellulose) (HPC)) was 81 % of control.
`COC1CC2C=C(C)/C=C/C=C/C(=O)NC(c3ccccc3)C/C=C/CCC(O)CC(=O)C2=C1O` (stereo unspecified) was tested, and the T/C (dose: 75.0 mg/kg/injection, schedule: Q04DX003 (sc), vehicle: Klucel (hydroxypropylcellulose) (HPC)) was 41 % of control, the T/C [5] was 71 % of control and the T/C [6] was 50 % of control.
For `O=C(O)/C=C/C(=O)Nc1ccc(Cl)c(Cl)c1`, the T/C (dose: 50.0 mg/kg/injection, schedule: Q04DX003 (sc), vehicle: Klucel (hydroxypropylcellulose) (HPC)) was 111 % of control, the T/C [7] was 91 % of control and the T/C [8] was 120 % of control.
`CC1=C[S+](c2ccccc2)c2cccc3cc4ccccc4c1c23` (stereo unspecified) was tested, and the T/C [9] was 69 % of control and the T/C [10] was 75 % of control.
With `COc1cccc2c1C(=O)c1c(O)c3c(c(O)c1C2=O)C[C@@](O)(C(=O)COC(=O)c1cccnc1)C[C@@H]3OC1CC(N)C(O)C(C)O1` (stereo partly specified) the T/C (dose: 6.0 mg/kg/injection, schedule: Q04DX003 (sc), vehicle: saline) was 52 % of control and 58 % of control, the T/C (dose: 12.0 mg/kg/injection, schedule: Q04DX003 (sc), vehicle: saline) was 15 % of control and 26 % of control and the T/C (dose: 24.0 mg/kg/injection, schedule: Q04DX003 (sc), vehicle: saline) was 20 % of control.
`CCCCC1CCCCCCc2[nH]c(/C=C3\N=C(c4ccc[nH]4)C=C3OC)cc21` (stereo unspecified) was tested, and the T/C (dose: 4.0 mg/kg/injection, schedule: Q04DX003 (sc), vehicle: saline with Tween-80) was 82 % of control, the T/C [9] was 107 % of control and the T/C [10] was 105 % of control. The T/C (dose: 32.0 mg/kg/injection, schedule: Q04DX003 (sc), vehicle: saline with Tween-80) was 80 % of control.
With `COc1cc(C(=O)c2cocc2C(=O)c2ccc3c(c2)OCO3)cc(OC)c1OC` the T/C [5] was 74 % of control, the T/C [6] was 52 % of control and the T/C (dose: 600.0 mg/kg/injection, schedule: Q04DX003 (sc), vehicle: Klucel (hydroxypropylcellulose) (HPC)) was 56 % of control. For the same compound, the T/C (dose: 1200.0 mg/kg/injection, schedule: Q04DX003 (sc), vehicle: Klucel (hydroxypropylcellulose) (HPC)) was 44 % of control.
For `Cc1ccc2nc(-c3ccc4nc(-c5ccc(N=Nc6ccc(-c7nc8ccc(-c9nc%10ccc(C)c(S(=O)(=O)O)c%10s9)cc8s7)cc6)cc5)sc4c3)sc2c1S(=O)(=O)O`, the T/C (dose: 200.0 mg/kg/injection, schedule: Q04DX003 (sc), vehicle: suspension in saline) was 90 % of control and the T/C (dose: 400.0 mg/kg/injection, schedule: Q04DX003 (sc), vehicle: suspension in saline) was 90 % of control.
For `Nc1ncc(C2OC(CO)C(O)C2O)c(=O)[nH]1` (stereo unspecified), the T/C (dose: 150.0 mg/kg/injection, schedule: Q04DX003 (ip), vehicle: saline) was 53 % of control, the T/C (dose: 300.0 mg/kg/injection, schedule: Q04DX003 (ip), vehicle: saline) was 35 % of control and the T/C (dose: 600.0 mg/kg/injection, schedule: Q04DX003 (ip), vehicle: saline) was 25 % of control.
In the case of `OCCCN1CCCCC1CO` (stereo unspecified), the T/C [11] is reported as 85 % of control, the T/C [12] is reported as 84 % of control and the T/C [13] is reported as 98 % of control.
With `O=S(=O)(c1ccccc1)N1CN2CCN(C2)C1` the T/C [14] was 58 % of control, the T/C (dose: 400.0 mg/kg/injection, schedule: Q04DX003 (sc), vehicle: saline with Tween-80) was 81 % of control and the T/C (dose: 800.0 mg/kg/injection, schedule: Q04DX003 (sc), vehicle: saline with Tween-80) was 65 % of control. The T/C (dose: 1600.0 mg/kg/injection, schedule: Q04DX003 (sc), vehicle: saline with Tween-80) was 48 % of control.
`O=C1N(Cl)C(=O)C(c2ccc(Cl)cc2)(c2ccc(Cl)cc2)N1Cl` was tested, and the T/C (dose: 50.0 mg/kg/injection, schedule: Q01DX010 (sc), vehicle: saline with Tween-80) was 68 % of control, the T/C (dose: 100.0 mg/kg/injection, schedule: Q01DX010 (sc), vehicle: saline with Tween-80) was 111 % of control and the T/C (dose: 200.0 mg/kg/injection, schedule: Q01DX010 (sc), vehicle: saline with Tween-80) was 65 % of control. For the same compound, the T/C (dose: 400.0 mg/kg/injection, schedule: Q01DX010 (sc), vehicle: saline with Tween-80) was 87 % of control.
For `Cc1c(N)nc(C(CC(N)=O)NCC(N)C(N)=O)nc1C(=O)NC(C(=O)NC(C)C(O)CC(=O)NC(C(=O)NC(OC1OC(C)C(N)C(O)C1O)C(O)c1nc(-c2nc(C(=O)NCCCC(N)CC(=O)NCCCNCCCCN)cs2)cs1)C(C)O)C(OC1OC(CO)C(O)C(O)C1OC1OC(CO)C(O)C(OC(N)=O)C1O)c1cnc[nH]1` (stereo unspecified), the T/C (dose: 8.0 mg/kg/injection, schedule: Q04DX003 (sc), vehicle: saline) was 47 % of control and the T/C (dose: 16.0 mg/kg/injection, schedule: Q04DX003 (sc), vehicle: saline) was 40 % of control.
With `COc1ccc(C(N)=O)cc1N=NN(C)C` the T/C (dose: 50.0 mg/kg/injection, schedule: Q01DX010 (sc), vehicle: Klucel (hydroxypropylcellulose) (HPC)) was 169 % of control.
With `CC(C#N)(C#N)N=Nc1ccc(Cl)cc1Cl` the T/C [3] was 94 % of control, the T/C [1] was 94 % of control and the T/C [4] was 98 % of control. The T/C [2] was 92 % of control.
With `CC1/C=C/C=C/CC/C=C/C=C/C=C/C=C/C(OC2OC(C)C(O)C(N)C2O)CC2OC(CC(O)C(O)CCC(O)CC(O)CC(O)CC(=O)OC(C)C(C)C1O)CC(O)C2C(=O)O` (stereo unspecified) the T/C (dose: 150.0 mg/kg/injection, schedule: Q04DX003 (ip), vehicle: saline with Tween-80) was 59 % of control and the T/C (dose: 300.0 mg/kg/injection, schedule: Q04DX003 (ip), vehicle: saline with Tween-80) was 55 % of control.
`COc1ccc(S(=O)(=O)N/N=C/C(=O)O)cc1` was tested, and the T/C (dose: 12.5 mg/kg/injection, schedule: Q01DX010 (sc), vehicle: saline with Tween-80) was 116 % of control.
For `Nc1nncs1`, the T/C (dose: 3.13 mg/kg/injection, schedule: Q01DX010 (sc), vehicle: saline) was 92 % of control, the T/C (dose: 6.25 mg/kg/injection, schedule: Q01DX010 (sc), vehicle: saline) was 99 % of control and the T/C (dose: 25.0 mg/kg/injection, schedule: Q01DX010 (sc), vehicle: saline) was 86 % of control.
With `Cn1cnc([N+](=O)[O-])c1SCC(=O)O` the T/C [11] was 80 % of control, the T/C [12] was 43 % of control and the T/C [13] was 88 % of control. The T/C (dose: 2400.0 mg/kg/injection, schedule: Q04DX003 (sc), vehicle: saline) was 71 % of control.
With `COC(=O)C12OCC34C(CC5C(C)=CC(=O)C(O)C5(C)C3C(O)C1O)OC(=O)C(OC(=O)CC(C)C)C24` (stereo unspecified) the T/C (dose: 1.5 mg/kg/injection, schedule: Q04DX003 (sc), vehicle: saline + alcohol) was 107 % of control and the T/C (dose: 3.0 mg/kg/injection, schedule: Q04DX003 (sc), vehicle: saline + alcohol) was 58 % of control.
In the case of `CCNC(=O)[B-][N+](C)(C)C`, the T/C [7] is reported as 115 % of control, the T/C (dose: 200.0 mg/kg/injection, schedule: Q04DX003 (sc), vehicle: Klucel (hydroxypropylcellulose) (HPC)) is reported as 92 % of control and the T/C [8] is reported as 74 % of control.
`C=C1C(=O)C23[C@H](O)C1CC[C@H]2[C@]12COC3(O)[C@@H](O)[C@@H]1C(C)(C)CC[C@@H]2O` was tested, and the T/C (dose: 12.5 mg/kg/injection, schedule: Q04DX003 (sc), vehicle: Klucel (hydroxypropylcellulose) (HPC)) was 52 % of control and the T/C (dose: 25.0 mg/kg/injection, schedule: Q04DX003 (sc), vehicle: Klucel (hydroxypropylcellulose) (HPC)) was 85 % of control.
`Nc1cc2c3c(cccc3c1)C(=O)N(CCN1CCCC1)C2=O` was tested, and the T/C (dose: 25.0 mg/kg/injection, schedule: Q04DX003 (sc), vehicle: saline with Tween-80) was 60 % of control, the T/C (dose: 50.0 mg/kg/injection, schedule: Q04DX003 (sc), vehicle: saline with Tween-80) was 60 % of control and the T/C (dose: 100.0 mg/kg/injection, schedule: Q04DX003 (sc), vehicle: saline with Tween-80) was 120 % of control. For the same compound, the T/C [14] was 119 % of control.
